The values that follow come from US12122778B2, “Activating pyruvate kinase R” (Novo Nordisk Health Care AG, priority 2018, dated 2024).

One assay concerns the target PKR(G332S) (Homo sapiens, UniProt P30613, G332S). As to the kind of experiment: Luminescence Biochemical Assay (Kinase Glo Plus), PKR G332S mutant. Particulars: with FBP; for activation at 1.54 µM: 1.54 μM compound, read-out: AC50 LUM KGP FBP % Fold@1.54 μM mean; for AC50: read-out: AC50 LUM KGP FBP AC50 μM gmean (column A); for Emax: read-out: AC50 LUM KGP FBP MAX % FOLD mean. A general note: Kinase-Glo measures the ATP left after a reaction by luminescence.

A further assay deals with PKR(R510Q) (Homo sapiens, UniProt P30613, R510Q). Nature of the assay: Luminescence Biochemical Assay (Kinase Glo Plus), PKR R510Q mutant. To be noted: without FBP; for activation at 1.54 µM: 1.54 μM compound, read-out: AC50 LUM KGP woFBP % Fold@1.54 μM mean; for AC50: read-out: AC50 LUM KGP woFBP AC50 μM gmean; for Emax: read-out: AC50 LUM KGP woFBP MAX % FOLD mean.
The next assay addresses PKR(wt) (Homo sapiens, UniProt P30613). As to the kind of experiment: Luminescence Biochemical Assay (Kinase Glo Plus), wild type PKR. Particulars: without FBP; for activation at 1.54 µM: 1.54 μM compound, read-out: AC50 LUM KGP woFBP % Fold@1.54 μM mean; for AC50: read-out: AC50 LUM KGP woFBP AC50 μM gmean; for Emax: read-out: AC50 LUM KGP woFBP MAX % FOLD mean.

PKR(R510Q), sequence (P30613 whole entry R510Q): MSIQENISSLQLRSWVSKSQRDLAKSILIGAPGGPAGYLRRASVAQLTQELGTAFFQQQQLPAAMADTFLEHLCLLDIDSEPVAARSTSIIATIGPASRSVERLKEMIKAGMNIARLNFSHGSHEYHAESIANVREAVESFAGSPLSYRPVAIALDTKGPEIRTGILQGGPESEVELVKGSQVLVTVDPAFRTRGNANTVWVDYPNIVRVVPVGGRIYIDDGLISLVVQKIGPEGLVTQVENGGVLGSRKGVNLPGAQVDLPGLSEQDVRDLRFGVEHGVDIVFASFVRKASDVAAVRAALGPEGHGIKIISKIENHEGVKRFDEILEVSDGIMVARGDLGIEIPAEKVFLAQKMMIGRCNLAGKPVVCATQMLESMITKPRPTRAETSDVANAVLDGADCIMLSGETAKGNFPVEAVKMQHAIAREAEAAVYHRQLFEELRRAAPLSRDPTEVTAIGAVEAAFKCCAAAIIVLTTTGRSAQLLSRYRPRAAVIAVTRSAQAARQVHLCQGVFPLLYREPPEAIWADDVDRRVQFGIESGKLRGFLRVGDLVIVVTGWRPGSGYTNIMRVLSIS
PKR(G332S), sequence (P30613 whole entry G332S): as the sequence (P30613 whole entry R510Q) above, with G332S, Q510R counted along it
PKR(wt), sequence (P30613 whole entry): as the sequence (P30613 whole entry R510Q) above, with Q510R counted along it

For the compound `O=C([C@H](O)c1ccccc1)N1CC2=C(C1)CN(S(=O)(=O)c1cccc(OC(F)F)c1)C2` [Example 18-15, (2R)-1-{5-[3-(difluoromethoxy)benzene-sulfonyl]-1H,2H,3H,4H,5H,6H-pyrrolo[3,4-c]pyrrol-2-yl}-2-hydroxy-2-phenylethan-1-one], on PKR(G332S), the activation at 1.54 µM lay in the range of 75 to 250%, the AC50 was not above 0.1 µM and the Emax fell in the range of 75 to 250%. At PKR(R510Q), the activation at 1.54 µM fell in the range of 250 to 50000%, the AC50 was not above 0.1 µM and the Emax fell in the range of 250 to 500%. At PKR(wt), the activation at 1.54 µM was in the range of 75 to 250%, the half-maximal activity concentration (AC50) was not above 0.1 µM and the Emax is 75 to 250%.

In the case of `O=C(Cc1cccnc1)N1CC2=C(C1)CN(S(=O)(=O)c1ccccn1)C2` [Example 16-1, 2-(Pyridin-3-yl)-1-[5-(pyridine-2-sulfonyl)-1H,2H,3H,4H,5H,6H-pyrrolo[3,4-c]pyrrol-2-yl]ethan-1-one], the activation at 1.54 µM on PKR(G332S), at PKR(R510Q) and at PKR(wt) was 75 to 250% throughout. Besides, the AC50 at PKR(G332S), on PKR(R510Q) and at PKR(wt) was 1 to 40 µM throughout. In addition, the Emax on PKR(G332S) lay within 75 to 250%; on PKR(R510Q), 75 to 250%; at PKR(wt) it was 250 to 500%.

With `CN1CCOc2ccc([C@@H](O)C(=O)N3CC4=C(C3)CN(S(=O)(=O)c3ccc(OC(F)F)cc3)C4)cc21` (single isomer, unassigned) [Example 10-1], on PKR(G332S), the activation at 1.54 µM was 75 to 250%, the AC50 lay within 0.1 to 1 µM and the Emax fell in the range of 75 to 250%. On PKR(R510Q), the activation at 1.54 µM fell in the range of 75 to 250%, the AC50 lay in the range of 1 to 40 µM and the Emax is 250 to 500%. Moreover, on PKR(wt), the activation at 1.54 µM lay within 75 to 250%, the AC50 was in the range of 1 to 40 µM and the Emax was in the range of 250 to 500%.

For the compound `O=C(Cc1cnccn1)N1CC2=C(C1)CN(S(=O)(=O)c1ccc(OC(F)F)cc1)C2` [Example 18-29, 1-{5-[4-(Difluoromethoxy)benzenesulfonyl]-1H,2H,3H,4H,5H,6H-pyrrolo[3,4-c]pyrrol-2-yl}-2-(pyrazin-2-yl)ethan-1-one], at PKR(G332S), the activation at 1.54 µM fell in the range of 75 to 250%, the AC50 is not above 0.1 µM and the Emax lay within 75 to 250%. Besides, at PKR(R510Q), the activation at 1.54 µM lay within 75 to 250%, the AC50 lay in the range of 1 to 40 µM and the Emax is 250 to 500%. Moreover, on PKR(wt), the activation at 1.54 µM is 75 to 250%, the AC50 was in the range of 1 to 40 µM and the Emax was 250 to 500%.

Turning to `O=C(NCc1cccnc1)N1CC2=C(C1)CN(S(=O)(=O)c1ccc3ncsc3c1)C2` [Example 20-56, 5-(1,3-Benzothiazole-6-sulfonyl)-N-(pyridin-3-ylmethyl)-1H,2H,3H,4H,5H,6H-pyrrolo[3,4-c]pyrrole-2-carboxamide], on PKR(G332S), the activation at 1.54 µM fell in the range of 75 to 250%, the AC50 fell in the range of 0.1 to 1 µM and the Emax lay in the range of 75 to 250%. At PKR(R510Q), the activation at 1.54 µM lay in the range of 75 to 250%, the AC50 lay in the range of 1 to 40 µM and the Emax was 250 to 500%. Besides, at PKR(wt), the activation at 1.54 µM is 75 to 250%, the AC50 is 1 to 40 µM and the Emax lay in the range of 250 to 500%.

For `O=C(N1CC2=C(C1)CN(S(=O)(=O)c1ccccn1)C2)C1(O)CC1` [Example 18-65, 1-[5-(Pyridine-2-sulfonyl)-1H,2H,3H,4H,5H,6H-pyrrolo[3,4-c]pyrrole-2-carbonyl]cyclopropan-1-ol], on PKR(G332S), the activation at 1.54 µM lay in the range of 75 to 250%, the AC50 fell in the range of 1 to 40 µM and the Emax was in the range of 75 to 250%. Further, at PKR(R510Q), the activation at 1.54 µM fell in the range of 75 to 250%, the AC50 was in the range of 1 to 40 µM and the Emax fell in the range of 75 to 250%. Also, at PKR(wt), the activation at 1.54 µM lay within 75 to 250%, the AC50 was 1 to 40 µM and the Emax fell in the range of 250 to 500%.

Turning to `COc1ccc(CNC(=O)N2CC3=C(C2)CN(S(=O)(=O)c2ccc(OC(F)F)cc2)C3)cc1` [Example 21-10, 5-[4-(Difluoromethoxy)benzenesulfonyl]-N-[(4-methoxyphenyl)methyl]-1H,2H,3H,4H,5H,6H-pyrrolo[3,4-c]pyrrole-2-carboxamide], on PKR(G332S), the activation at 1.54 µM was 75 to 250%, the half-maximal activity concentration (AC50) is not above 0.1 µM and the Emax is 75 to 250%. Further, on PKR(R510Q), the activation at 1.54 µM was 250 to 50000%, the AC50 is not above 0.1 µM and the Emax lay in the range of 250 to 500%. Also, at PKR(wt), the activation at 1.54 µM is 250 to 50000%, the AC50 is not above 0.1 µM and the Emax lay within 250 to 500%.

Regarding `Cc1ccc(S(=O)(=O)N2CC3=C(CN(C(=O)[C@H](O)c4ccccc4)C3)C2)cc1F` [Example 18-51, (2R)-1-[5-(3-fluoro-4-methylbenzenesulfonyl)-1H,2H,3H,4H,5H,6H-pyrrolo[3,4-c]pyrrol-2-yl]-2-hydroxy-2-phenylethan-1-one], the activation at 1.54 µM at PKR(G332S), at PKR(R510Q) and on PKR(wt) was 75 to 250% throughout. The AC50 is 1 to 40 µM at PKR(G332S), 0.1 to 1 µM at PKR(R510Q) and 0.1 to 1 µM at PKR(wt). Moreover, the Emax on PKR(G332S) is 75 to 250%; at PKR(R510Q), 250 to 500%; on PKR(wt), 75 to 250%.

In the case of `O=C(NCc1ccccc1F)N1CC2=C(C1)CN(S(=O)(=O)c1ccc3ncsc3c1)C2` [Example 21-20, 5-(1,3-Benzothiazole-6-sulfonyl)-N-[(2-fluorophenyl)methyl]-1H,2H,3H,4H,5H,6H-pyrrolo[3,4-c]pyrrole-2-carboxamide], at PKR(G332S), the activation at 1.54 µM fell in the range of 75 to 250%, the AC50 was not above 0.1 µM and the Emax is 75 to 250%. At PKR(R510Q), the activation at 1.54 µM lay within 250 to 50000%, the AC50 was not above 0.1 µM and the Emax was 250 to 500%. Besides, on PKR(wt), the activation at 1.54 µM fell in the range of 250 to 50000%, the AC50 was not above 0.1 µM and the Emax was in the range of 250 to 500%.

Turning to `Cc1nc(CC(=O)N2CC3=C(C2)CN(S(=O)(=O)c2ccc(OC(F)F)cc2)C3)cs1` [Example 18-20, 1-{5-[4-(Difluoromethoxy)benzene-sulfonyl]-1H,2H,3H,4H,5H,6H-pyrrolo[3,4-c]pyrrol-2-yl}-2-(2-methyl-1,3-thiazol-4-yl)ethan-1-one], on PKR(G332S), the activation at 1.54 µM was in the range of 75 to 250%, the AC50 fell in the range of 1 to 40 µM and the Emax was in the range of 75 to 250%. In addition, at PKR(R510Q), the activation at 1.54 µM lay within 75 to 250%, the half-maximal activity concentration (AC50) lay in the range of 1 to 40 µM and the Emax lay within 250 to 500%. Moreover, on PKR(wt), the activation at 1.54 µM was in the range of 250 to 50000%, the AC50 was 0.1 to 1 µM and the Emax was 250 to 500%.

Take `O=C(NCc1ccc(F)cc1)N1CC2=C(C1)CN(S(=O)(=O)c1ccc(OC(F)F)cc1)C2` [Example 21-13, 5-[4-(Difluoromethoxy)benzenesulfonyl]-N-[(4-fluorophenyl)methyl]-1H,2H,3H,4H,5H,6H-pyrrolo[3,4-c]pyrrole-2-carboxamide]: at PKR(G332S), the activation at 1.54 µM is 75 to 250%, the AC50 is not above 0.1 µM and the Emax was 75 to 250%. For the same compound, at PKR(R510Q), the activation at 1.54 µM lay within 250 to 50000%, the AC50 was in the range of 0.1 to 1 µM and the Emax lay within 250 to 500%. In addition, at PKR(wt), the activation at 1.54 µM was in the range of 250 to 50000%, the AC50 lay within 0.1 to 1 µM and the Emax is 250 to 500%.

For the compound `O=C([C@@H]1CCCO1)N1CC2=C(C1)CN(S(=O)(=O)c1ccccn1)C2` [Example 18-69, 2-({5-[(2S)-oxolane-2-carbonyl]-1H,2H,3H,4H,5H,6H-pyrrolo[3,4-c]pyrrol-2-yl}sulfonyl)pyridine], on PKR(G332S), the activation at 1.54 µM lay within 75 to 250%, the AC50 is 1 to 40 µM and the Emax is 75 to 250%. Further, at PKR(R510Q), the activation at 1.54 µM lay in the range of 75 to 250%, the AC50 is 1 to 40 µM and the Emax is 75 to 250%. Besides, on PKR(wt), the activation at 1.54 µM lay in the range of 75 to 250%, the AC50 lay in the range of 1 to 40 µM and the Emax fell in the range of 75 to 250%.

As for `O=C(OCC1CCOC1)N1CC2=C(C1)CN(S(=O)(=O)c1ccc(OC(F)F)cc1)C2` (stereo not drawn) [Example 22-3, Oxolan-3-ylmethyl 5-[4-(difluoromethoxy)benzenesulfonyl]-1H,2H,3H,4H,5H,6H-pyrrolo[3,4-c]pyrrole-2-carboxylate], at PKR(G332S), the activation at 1.54 µM lay within 75 to 250%, the AC50 lay within 1 to 40 µM and the Emax lay in the range of 75 to 250%. At PKR(R510Q), the activation at 1.54 µM fell in the range of 75 to 250%, the AC50 was in the range of 1 to 40 µM and the Emax lay within 75 to 250%. Besides, on PKR(wt), the activation at 1.54 µM lay within 75 to 250%, the AC50 lay in the range of 1 to 40 µM and the Emax is 75 to 250%.

As to `Cc1cccc(Cl)c1S(=O)(=O)N1CC2=C(CN(C(=O)[C@@H](O)c3ccccc3)C2)C1` [Example 18-54, (2S)-1-[5-(2-chloro-6-methylbenzenesulfonyl)-1H,2H,3H,4H,5H,6H-pyrrolo[3,4-c]pyrrol-2-yl]-2-hydroxy-2-phenylethan-1-one], at PKR(G332S), the activation at 1.54 µM fell in the range of 75 to 250%, the AC50 was in the range of 1 to 40 µM and the Emax lay within 75 to 250%. In addition, on PKR(R510Q), the activation at 1.54 µM fell in the range of 75 to 250%, the AC50 lay in the range of 1 to 40 µM and the Emax lay within 75 to 250%. Also, at PKR(wt), the activation at 1.54 µM lay in the range of 75 to 250%, the AC50 fell in the range of 1 to 40 µM and the Emax is 75 to 250%.

For the compound `Cc1cc(COC(=O)N2CC3=C(C2)CN(S(=O)(=O)c2ccc(OC(F)F)cc2)C3)no1` [Example 22-5, (5-Methyl-1,2-oxazol-3-yl)methyl-5-[4-(difluoromethoxy)benzenesulfonyl]-1H,2H,3H,4H,5H,6H-pyrrolo[3,4-c]pyrrole-2-carboxylate], at PKR(G332S), the activation at 1.54 µM is 75 to 250%, the AC50 lay in the range of 0.1 to 1 µM and the Emax was 75 to 250%. Also, on PKR(R510Q), the activation at 1.54 µM lay in the range of 250 to 50000%, the half-maximal activity concentration (AC50) was in the range of 0.1 to 1 µM and the Emax fell in the range of 250 to 500%. Also, at PKR(wt), the activation at 1.54 µM lay within 250 to 50000%, the AC50 was in the range of 0.1 to 1 µM and the Emax is 250 to 500%.

The term AC50 denotes the concentration giving half of the maximal activity seen.
